# Data as given in patent publication US20250388529A1, “N-Substituted Phenylalkylamines and Their Use as Therapeutic Agents” (priority 2023, published 2025).
# Target: T1, human 5-HT2C receptor (Homo sapiens, UniProt P28335)
# T1 construct: expressed in transfected cells
# Assay: Gq-mediated calcium flux assay, Flp-In 293 T-Rex inducible cells (agonist and antagonist mode)
# Assay type: cell-based
# T1 sequence (P28335 33-458): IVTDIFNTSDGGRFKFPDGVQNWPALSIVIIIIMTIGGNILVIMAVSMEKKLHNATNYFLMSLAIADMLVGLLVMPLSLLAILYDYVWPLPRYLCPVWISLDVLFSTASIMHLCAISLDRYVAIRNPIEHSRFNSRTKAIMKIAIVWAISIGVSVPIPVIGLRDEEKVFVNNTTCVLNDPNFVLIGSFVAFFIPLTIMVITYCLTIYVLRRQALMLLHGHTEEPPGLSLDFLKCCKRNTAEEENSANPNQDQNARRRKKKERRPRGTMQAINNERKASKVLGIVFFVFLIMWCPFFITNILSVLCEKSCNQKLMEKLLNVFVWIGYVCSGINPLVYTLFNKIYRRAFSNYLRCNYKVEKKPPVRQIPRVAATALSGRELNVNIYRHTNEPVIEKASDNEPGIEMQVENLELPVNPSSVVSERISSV
structure (smiles),measurement,setting,value
"COc1cc(CCNCCCCCCOCCCCc2ccccc2)c(OC)cc1Br [XOB, N-(4-bromo-2,5-dimethoxyphenethyl)-6-(4-phenylbutoxy)hexan-1-amine]",agonist activity at 5-HT2C,"agonist mode, up to 10 μM",little to no measurable agonist activity
same,inhibition of 5-HT-mediated calcium flux at 5-HT2C,"antagonist mode, concentrations up to 10 μM",< 50%
